According to ChEMBL document CHEMBL3763040, “3,5-Bis(3-alkylaminomethyl-4-hydroxybenzylidene)-4-piperidones: A Novel Class of Potent Tumor-Selective Cytotoxins” (J Med Chem, 2016):

Tests used:
[1] = Cytotoxicity against human HSC2 cells assessed as cell death after 48 hrs by MTT assay; assay type: functional; settings: HSC-2, 48 h
[2] = Cytotoxicity against human HSC3 cells assessed as cell death after 48 hrs by MTT assay; assay type: functional; settings: HSC-3, 48 h
[3] = Cytotoxicity against human HSC4 cells assessed as cell death after 48 hrs by MTT assay; assay type: functional; settings: HSC-4, 48 h
[4] = Cytotoxicity against human HL60 cells assessed as cell death after 48 hrs by MTT assay; assay type: functional; settings: HL-60, 48 h
HSC-2 = assay: Selectivity index, ratio of CC50 for HGF to CC50 for human HSC2 cells; settings: pooled result: one value given for 3 cell lines, strains, targets or settings
HSC-3 = assay: Selectivity index, ratio of CC50 for HGF to CC50 for human HSC3 cells; settings: pooled result: one value given for 3 cell lines, strains, targets or settings
HSC-4 = assay: Selectivity index, ratio of CC50 for HGF to CC50 for human HSC4 cells; settings: pooled result: one value given for 3 cell lines, strains, targets or settings
HL-60 = assay: Selectivity index, ratio of CC50 for HGF to CC50 for human HL60 cells; settings: pooled result: one value given for 3 cell lines, strains, targets or settings
[5] = Antiproliferative activity against human Molt4/C8 cells assessed as cell survival after 72 hrs by coulter counter analysis; assay type: functional, cell-based; settings: MOLT-4, 72 h
CCRF-CEM [6] = assay: Antiproliferative activity against human CEM cells assessed as cell survival after 72 hrs by coulter counter analysis; assay type: functional, cell-based
L1210 = assay: Antiproliferative activity against mouse L1210 cells assessed as cell survival after 48 hrs by coulter counter analysis; assay type: functional, cell-based; settings: L1210, 48 h
[7] = Cytotoxicity against HGF assessed as cell death after 48 hrs by MTT assay; settings: human, HGF cells
[8] = Cytotoxicity against HPC assessed as cell death after 48 hrs by MTT assay; settings: human, HPC cells
[9] = Cytotoxicity against HPLF assessed as cell death after 48 hrs by MTT assay; settings: human, HPLF cells
[10] = Cytotoxicity against human COLO205 cells after 48 hrs by sulforhodamine B assay; assay type: functional, cell-based; settings: COLO 205, 48 h
[11] = Cytotoxicity against human HCC2998 cells after 48 hrs by sulforhodamine B assay; assay type: functional, cell-based; settings: HCC 2998, 48 h
[12] = Cytotoxicity against human HCT116 cells after 48 hrs by sulforhodamine B assay; assay type: functional, cell-based; settings: HCT-116, 48 h
[13] = Cytotoxicity against human HCT15 cells after 48 hrs by sulforhodamine B assay; assay type: functional, cell-based; settings: HCT-15, 48 h
HT-29 = assay: Cytotoxicity against human HT-29 cells after 48 hrs by sulforhodamine B assay; assay type: functional, cell-based; settings: HT-29, 48 h
KM12 = assay: Cytotoxicity against human KM12 cells after 48 hrs by sulforhodamine B assay; assay type: functional, cell-based; settings: KM12, 48 h
[14] = Cytotoxicity against human SW620 cells after 48 hrs by sulforhodamine B assay; assay type: functional, cell-based; settings: SW-620, 48 h
[15] = Potency index, ratio of melphalan IC50 to compound IC50 for antiproliferative activity against human Molt4/C8 cells; assay type: functional, MOLT-4
CCRF-CEM [16] = assay: Potency index, ratio of melphalan IC50 to compound IC50 for antiproliferative activity against human CEM cells; assay type: functional

SMILES	CC50 [1] [µM]	CC50 [2] [µM]	CC50 [3] [µM]	CC50 [4] [µM]	Selectivity Index (HSC-2)	Selectivity Index (HSC-3)	Selectivity Index (HSC-4)	Selectivity Index (HL-60)	IC50 [5] [µM]	IC50 (CCRF-CEM [6]) [µM]	IC50 (L1210) [µM]	CC50 at 48 h [7] [µM]	CC50 at 48 h [8] [µM]	CC50 at 48 h [9] [µM]	Ratio IC50 [15]	also measured
N[C@@H](Cc1ccc(N(CCCl)CCCl)cc1)C(=O)O	8.7	25	32	1.4	24.1	8.4	6.56	150								
O=C(/C=C/c1ccc(O)cc1)/C=C/c1ccc(O)cc1	5.3	5.4	4.9	3.9	3.09	3.04	3.35	4.21	3.69	3.38	7.74	24	9.2	16		
O=c1[nH]cc(F)c(=O)[nH]1 [FLUOROURACIL]																CC50 [10]: > 2510 µM; TGI [10]: > 1860 µM; CC50 [11]: > 2510 µM; TGI [11]: > 1860 µM; CC50 [12]: > 2510 µM; TGI [12]: > 1860 µM; CC50 [13]: > 2510 µM; TGI [13]: > 1860 µM; CC50 (HT-29): > 2510 µM; TGI (HT-29): > 1860 µM; CC50 (KM12): > 2510 µM; TGI (KM12): > 1860 µM; CC50 [14]: > 2510 µM; TGI [14]: > 1860 µM
Cl.Cl.Cl.O=C1/C(=C/c2ccc(O)c(CN3CCOCC3)c2)CNC/C1=C\c1ccc(O)c(CN2CCOCC2)c1	0.6	1	1.1	0.71	6.05	3.63	3.3	5.11	1.6	1.67	7.78	3.7	3.4	3.8	2.03	Ratio IC50 (CCRF-CEM [16]): 1.48
O=C1/C(=C/c2ccc(O)cc2)CCC/C1=C\c1ccc(O)cc1	16	50	62	1.9	>12.5	>4	>3.23	>105	1.06	6.96	10.7	> 200	> 200	> 200	3.06	
